Read-outs that look alike come from different tables or passages of the source.
System: CD8+ T cells
Experiment: In vitro T-cell priming assay (aAPCs loaded with peptide/MHC and anti-CD28, pMHC multimer readout)
Assay type: cell-based, human
Details: for Wells: positive wells
Text: In order to obtain information regarding the immunogenicity of the TUMAPs of the present invention, we performed investigations using an in vitro T-cell priming assay based on repeated stimulations of CD8+ T cells with artificial antigen presenting cells (aAPCs) loaded with peptide/MHC complexes and anti-CD28 antibody.
In order to perform in vitro stimulations by artificial antigen presenting cells loaded with peptide-MHC complex (pMHC) and anti-CD28 antibody, we first isolated CD8+ T cells from fresh HLA-A*02 leukapheresis products via positive selection using CD8 microbeads (Miltenyi Biotec, Bergisch-Gladbach, Germany) of healthy donors obtained from the Transfusion Medicine Tuebingen, Germany, after informed consent.
Isolated CD8+ lymphocytes or PBMCs were incubated until use in T-cell medium (TCM) consisting of RPMI-Glutamax (Invitrogen, Karlsruhe, Germany) supplemented with 10% heat inactivated human AB serum (PAN-Biotech, Aidenbach, Germany), 100 U/ml Penicillin/100 μg/ml Streptomycin (Cambrex, Cologne, Germany), 1 mM sodium pyruvate (CC Pro, Oberdorla, Germany), 20 μg/ml Gentamycin (Cambrex). 2.5 ng/ml IL-7 (PromoCell, Heidelberg, Germany) and 10 U/ml IL-2 (Novartis Pharma, Nurnberg, Germany) were also added to the TCM at this step.
Generation of pMHC/anti-CD28 coated beads, T-cell stimulations and readout was performed in a highly defined in vitro system using four different pMHC molecules per stimulation condition and 8 different pMHC molecules per readout condition.
All pMHC complexes used for aAPC loading and cytometric readout were derived from UV-induced MHC ligand exchange (Rodenko et al., 2006) with minor modifications. In order to determine the amount of pMHC monomer obtained by exchange we performed streptavidin-based sandwich ELISAs according to (Rodenko et al., 2006).
The purified co-stimulatory mouse IgG2a anti human CD28 Ab 9.3 (Jung et al., 1987) was chemically biotinylated using Sulfo-N-hydroxysuccinimidobiotin as recommended by the manufacturer (Perbio, Bonn, Germany). Beads used were 5.6 μm diameter streptavidin coated polystyrene particles (Bangs Laboratories, Ill., USA).
pMHC used for positive and negative control stimulations were A*0201/MLA-001 (peptide […] from modified Melan-A/MART-1) and A*0201/DDX5-001 ([…] from DDX5), respectively.
800.000 beads/200 μl were coated in 96-well plates in the presence of 4×12.5 ng different biotin-pMHC, washed and 600 ng biotin anti-CD28 were added subsequently in a volume of 200 μl. Stimulations were initiated in 96-well plates by co-incubating 1×10^6 CD8+ T cells with 2×10^5 washed coated beads in 200 μl TCM supplemented with 5 ng/ml IL-12 (PromoCell) for 3-4 days at 37° C. Half of the medium was then exchanged by fresh TCM supplemented with 80 U/ml IL-2 and incubating was continued for 3-4 days at 37° C. This stimulation cycle was performed for a total of three times. For the pMHC multimer readout using 8 different pMHC molecules per condition, a two-dimensional combinatorial coding approach was used as previously described (Andersen et al., 2012) with minor modifications encompassing coupling to 5 different fluorochromes. Finally, multimeric analyses were performed by staining the cells with Live/dead near IR dye (Invitrogen, Karlsruhe, Germany), CD8-FITC antibody clone SK1 (BD, Heidelberg, Germany) and fluorescent pMHC multimers. For analysis, a BD LSRII SORP cytometer equipped with appropriate lasers and filters was used. Peptide specific cells were calculated as percentage of total CD8+ cells. Evaluation of multimeric analysis was done using the FlowJo software (Tree Star, Oreg., USA). In vitro priming of specific multimer+CD8+ lymphocytes was detected by comparing to negative control stimulations.

[1] = in vitro immunogenicity, trifluoro-acetate salts of the peptides
[2] = in vitro immunogenicity, responding healthy donors, trifluoro-acetate salts of the peptides

Substance: 1 (ILFEINPKL; listed as Homo sapiens) [compound 1]
- Wells [1]: + (<20% = +)
- Donors [2]: ++ (20%-49% = ++)

Substance: 2 (KIQEMQHFL; listed as Homo sapiens) [compound 2]
- Wells [1]: + (<20% = +)
- Donors [2]: ++ (20%-49% = ++)

Substance: 3 (ALDENLHQL; listed as Homo sapiens) [compound 3]
- Wells [1]: + (<20% = +)
- Donors [2]: ++ (20%-49% = ++)

Substance: 4 (NLIEKSIYL; listed as Homo sapiens) [compound 4]
- Wells [1]: + (<20% = +)
- Donors [2]: ++ (20%-49% = ++)

Substance: 7 (TLWYRAPEV; listed as Homo sapiens) [compound 7]
- Wells [1]: ++ (20%-49% = ++)
- Donors [2]: ++++ (>70 = ++++)

Substance: 8 (SMSGYDQVL; listed as Homo sapiens) [compound 8]
- Wells [1]: + (<20% = +)
- Donors [2]: ++ (20%-49% = ++)

Substance: 9 (ALMDKEGLTAL; listed as Homo sapiens) [compound 9]
- Wells [1]: + (<20% = +)
- Donors [2]: + (<20% = +)

Substance: 10 (VLSVVEVTL; listed as Homo sapiens) [compound 10]
- Wells [1]: + (<20% = +)
- Donors [2]: ++ (20%-49% = ++)

Substance: 11 (VLLPVEVATHYL; listed as Homo sapiens) [compound 11]
- Donors: 100%
- Wells [1]: ++ (20%-49% = ++)
- Donors [2]: ++++ (>70 = ++++)

Substance: 15 (KLAVALLAA; listed as Homo sapiens) [compound 15]
- Wells [1]: ++ (20%-49% = ++)
- Donors [2]: ++ (20%-49% = ++)

Substance: 16 (TVIGFLLPFA; listed as Homo sapiens) [compound 16]
- Wells [1]: + (<20% = +)
- Donors [2]: ++ (20%-49% = ++)

Substance: 18 (TLYPHTSQV; listed as Homo sapiens) [compound 18]
- Wells [1]: + (<20% = +)
- Donors [2]: +++ (50%-70%, +++)

Substance: 19 (AVVEFLTSV; listed as Homo sapiens) [compound 19]
- Wells [1]: + (<20% = +)
- Donors [2]: ++ (20%-49% = ++)

Substance: 21 (AILDTLYEV; listed as Homo sapiens) [compound 21]
- Wells [1]: ++ (20%-49% = ++)
- Donors [2]: ++ (20%-49% = ++)

Substance: 22 (FLIPIYHQV; listed as Homo sapiens) [compound 22]
- Wells [1]: + (<20% = +)
- Donors [2]: +++ (50%-70%, +++)

Substance: 24 (FLVDGSWSV; listed as Homo sapiens) [compound 24]
- Wells [1]: + (<20% = +)
- Donors [2]: ++ (20%-49% = ++)

Substance: 30 (KIYNEFISV; listed as Homo sapiens) [compound 30]
- Wells [1]: + (<20% = +)
- Donors [2]: ++ (20%-49% = ++)

Substance: 31 (AIDGNNHEV; listed as Homo sapiens) [compound 31]
- Wells [1]: + (<20% = +)
- Donors [2]: +++ (50%-70%, +++)

Substance: 32 (KLSWDLIYL; listed as Homo sapiens) [compound 32]
- Wells [1]: + (<20% = +)
- Donors [2]: +++ (50%-70%, +++)

Substance: 33 (ALLRTVVSV; listed as Homo sapiens) [compound 33]
- Wells [1]: + (<20% = +)
- Donors [2]: +++ (50%-70%, +++)

Substance: 35 (VLFPNLKTV; listed as Homo sapiens) [compound 35]
- Wells [1]: + (<20% = +)
- Donors [2]: ++ (20%-49% = ++)

Substance: 37 (VLAPLFVYL; listed as Homo sapiens) [compound 37]
- Donors: 100%
- Wells [1]: + (<20% = +)
- Donors [2]: ++++ (>70 = ++++)

Substance: 38 (SLHFLILYV; listed as Homo sapiens) [compound 38]
- Wells [1]: + (<20% = +)
- Donors [2]: ++ (20%-49% = ++)

Substance: 39 (RLLDSVSRL; listed as Homo sapiens) [compound 39]
- Wells [1]: + (<20% = +)
- Donors [2]: ++ (20%-49% = ++)

Substance: 40 (GLTDNIHLV; listed as Homo sapiens) [compound 40]
- Wells [1]: + (<20% = +)
- Donors [2]: ++ (20%-49% = ++)

Substance: 42 (SLWGGDVVL; listed as Homo sapiens) [compound 42]
- Donors: 100%
- Wells [1]: ++ (20%-49% = ++)
- Donors [2]: ++++ (>70 = ++++)
